The values that follow come from paper PMC5787524, “Discovery of a FLT3 inhibitor LDD1937 as an anti-leukemic agent for acute myeloid leukemia” (Oncotarget, 2017).

For one data set, the system named is leukemic cells. Description: Differentiation of leukemic cells (Wright-Giemsa staining). As to conditions: data not shown. The format is cell-based.
The test system of another data set is Jurkat cells. Description: Cell viability / growth inhibition (EZ-Cytox), Jurkat. It counts as cell-based. Particulars: Homo sapiens, Table 2, 72 h. The method, then:
(§1) MV-4-11 human acute myeloid leukemia cells were purchased from the American Type Culture Collection (ATCC, Rockville, MD, USA, CRL-9591), and the cells were cultured in IMDM medium (Sigma Co., St. Louis, MO, USA) supplemented with 10% fetal bovine serum, 1% penicillin/streptomycin and 4 mM L-glutamine (Life Technology, Grand Island, NY). Jurkat (human acute T lymphocytic leukemia, ATCC TIB-152) and K562 (human chronic myelogenous leukemia, ATCC CCL-243) cells were cultured in RPMI-1640 (Sigma Co.), and MCF7 (human breast adenocarcinoma, ATCC HTB-22) and PC-3 (human prostate adenocarcinoma, ATCC CRL-1435) cells were cultured in DMEM (Sigma Co.) medium supplemented with 10% fetal bovine serum and 1% penicillin/streptomycin. The cultured cells were incubated at 37°C with 5% CO2. Cell viability was assessed with a tetrazolium-based assay using the EZ-Cytox Cell Viability Assay kit (DaeilLab, Korea). Briefly, 2,000 ∼ 15,000 cells were plated in 96-well flat bottom plates in 100 µl of medium. The next day, the cells were treated with compounds along with dimethyl sulfoxide (DMSO, Fisher, Waltham, MA, USA) as a negative control. […] After incubation, the optical density (OD) was measured at a wavelength of 450 nm with a Victor multilabel reader (Perkin Elmer, Waltham, MA, USA). The IC50 was calculated with nonlinear regression using Prism version 5.01 (GraphPad, La Jolla, CA, USA).

The subject of data set [1] is PARP cleavage in MV-4-11 cells. Kind of data set: PARP cleavage western blot. As to conditions: MV-4-11, 24 h. The format is cell-based, human. The method, then:
(§2) Cells were lysed in SDS Lysis buffer (12 mM Tris-Cl, pH 6.8, 5% glycerol, and 0.4% SDS), and the protein concentrations were measured with the SMART BCA Protein Assay kit (iNtRON Biotechnology, Korea). The proteins were resolved with SDS-polyacrylamide gel electrophoresis followed by transfer to PVDF membranes (Millipore, Billerica, MA, USA) and incubated overnight with the appropriate antibodies. The antibodies used were as follows: phospho-STAT5 (p-STAT5; rabbit polyclonal IgG; #9351, 1:1,000), cyclin D1 (rabbit polyclonal IgG; #2922, 1:1,000), and PARP (rabbit polyclonal IgG; #9542, 1:1,000) from Cell Signaling Technology (Danver, MA, USA), STAT5 (rabbit polyclonal IgG; #sc-835, 1:1,000) from Santa Cruz (Santa Cruz, CA, USA), and β-actin (mouse monoclonal IgG; # A5441, 1:5000) from Sigma-Aldrich. Goat anti-rabbit IgG (#111-035-003; 1;5,000) and anti-mouse IgG (#115-035-033; 1:5,000) secondary antibodies were obtained from Jackson ImmunoResearch Laboratories, Inc. (West Grove, PA, USA).

Another data set has as its system MV-4-11 cells. Description: Annexin V / propidium iodide flow cytometry (apoptosis). The format is cell-based, human. Particulars: 10 nM, 24 h. The method, then: For Annexin V staining, the Alexa Flour® 488 Annexin V/ Dead Cell Apoptosis Kit (ThermoFisher, USA) was used. Cells were seeded in 6-well plates (1 × 10^6 cells per well) and treated with compounds for 24 h. The cells were stained with Annexin V and propidium iodide (PI) according to the manufacturer’s instruction. Then, the cells were subjected to flow cytometry using an Accuri C6 flow cytometer (BD Bio-sciences, San Jose, CA, USA). The data were analyzed with the BD Accuri C6 software.
For orientation: In flow cytometry, cells or beads pass a laser one at a time.

Another data set has as its target T1, FLT3 (Homo sapiens, UniProt P36888).
T1 construct: Recombinant proteins containing the FLT3 kinase domain were purchased from Carna biosciences (Japan); purchased Carna biosciences (Japan)
T1 sequence (P36888 610-943 limits assumed): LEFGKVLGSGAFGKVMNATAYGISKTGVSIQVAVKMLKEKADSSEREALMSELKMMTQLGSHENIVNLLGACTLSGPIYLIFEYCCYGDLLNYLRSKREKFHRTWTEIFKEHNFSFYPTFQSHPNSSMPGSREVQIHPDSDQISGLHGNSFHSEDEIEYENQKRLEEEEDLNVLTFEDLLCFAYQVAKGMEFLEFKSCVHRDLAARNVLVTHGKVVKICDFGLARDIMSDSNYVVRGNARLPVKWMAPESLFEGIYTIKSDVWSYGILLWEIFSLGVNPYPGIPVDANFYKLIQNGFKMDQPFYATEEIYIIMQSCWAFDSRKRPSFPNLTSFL
Kind of data set: In vitro FLT3 kinase assay (HTRF). The format is biochemical. On the procedure:
The inhibition of the FLT3 kinase activity was measured with homogeneous, time-resolved fluorescence (HTRF) assays. Recombinant proteins containing the FLT3 kinase domain were purchased from Carna biosciences (Japan). Optimal enzyme, ATP, and substrate concentrations were established with the HTRF KinEASE kit (Cisbio, France) according to the manufacturer’s instructions. The FLT3 enzymes were mixed with serially diluted compounds and peptide substrates in a kinase reaction buffer (50 mM HEPES (pH 7.0), 500 μM ATP, 0.1 mM sodium orthovanadate, 5 mM MgCl2, 1 mM DTT, 0.01% bovine serum albumin (BSA), and 0.02% NaN3). After the addition of the reagents for detection, the TR-FRET signal was measured with a Victor multilabel reader (Perkin Elmer, Waltham, MA, USA). […] JAK2, JAK3, cMET, and RET in vitro kinase assays were also carried out using the HTRF assay kit.
A general note: In TR-FRET formats the signal depends on donor and acceptor labels being close together.

In a further data set the test system is K562 cells. Kind of data set: Cell viability / growth inhibition (EZ-Cytox), K562. The format is cell-based. Particulars: Homo sapiens, Table 2, 72 h. On the procedure:
as §1

Data set [2] can be described thus: Parallel artificial membrane permeability (PAMPA) assay. The format is in vitro ADME. In general terms: PAMPA measures passive passage across an artificial lipid membrane.
A further data set deals with MV-4-11 xenograft. Kind of data set: MV-4-11 mouse tumor xenograft. It counts as in vivo, BALB/c nu/nu mice. On the procedure: MV-4-11 cells were inoculated subcutaneously in the flank of female BALB/c nu/nu (athymic nude) mice (5 × 10^6 cells per mouse). […] The drug or the control PBS was administered daily for a duration of 21 days. Tumor sizes were measured twice a week for 21 days, and the tumor volumes were calculated with the following formula: V (volume) = X (length) × D (width)^2/2. After 21 days, the mice were sacrificed, and the tumor weights were measured.

For another data set, the system named is MCF-7 cells. Kind of data set: Cell viability / growth inhibition (EZ-Cytox), MCF-7. It counts as cell-based. Particulars: Homo sapiens, MCF7; Table 2, 72 h. On the procedure: as §1
The subject of data set [3] is cyclin D1 level in MV-4-11 cells. Kind of data set: Cyclin D1 western blot. The format is cell-based, human. Particulars: MV-4-11, 16 h, from as low as 10 nM. On the procedure:
as §2

Molecules are shown by their SMILES. “Also recorded” adds a separate entry of the source. Read-outs that look alike come from different tables or passages of the source.

In general, GI50 refers to the concentration giving 50% growth inhibition. A lower GI50 goes with greater sensitivity of the cells. What is called IC50 is the concentration that gives 50% inhibition.

Take `COC(=O)c1ccc2c(c1)/C(=C1/Nc3ccccc3/C1=N\OCCN1CCNCC1)C(=O)N2.Cl.Cl` [LDD1937, methyl (2Z,3E)-2′-oxo-3-((2-(piperazin-1-yl)ethoxy)imino)-[2,3′-biindolinylidene]-5′-carboxylate dihydrochloride]: the “differentiated cells (Wright-Giemsa staining)” value in the data set on leukemic cells is given as “differentiated cells were not observed”. The results for the 50% growth inhibitory concentration (GI50) in the data set on Jurkat cells, in the data set with K562 cells and with MCF-7 cells were 1.44 ± 0.29 µM, 1.21 ± 0.33 µM and 2.14 ± 0.16 µM, respectively. Moreover, in [1] (1 nM), the “cleaved PARP” value was “an increase in the cleaved PARP was detected”. For the same compound, the PARP cleavage result in [1] (western blot) is “induced PARP cleavage in a dose-dependent manner”. For the same compound, in the data set on MV-4-11 cells, the “cells in upper right quadrant (Annexin V+ and PI+, late apoptotic)” value came to 24.8%. Further, the IC50 at FLT3 (Table 1, mean ± S.D., read-out: IC50 FLT3) amounted to 0.003 ± 0.000525 µM; on FLT3 (recombinant FLT3, HTRF, read-out: IC50 FLT3 kinase activity), 0.003 ± 0.00053 µM. For the same compound, the PAMPA assay result in data set [2] is recorded as “–4.49 ± 0.140”. For the same compound, in [2], the “PAMPA level of permeability” value is “medium level of permeability”. In addition, the tumor weight entry with MV-4-11 xenograft (5 mg/kg intravenous daily, day 21, vs control) was “significant reduction”. Moreover, the “tumor volume / tumor mass” value in the data set on MV-4-11 xenograft (10 mg/kg intravenous daily for 21 days) is on record as “the tumor disappeared from day 3; also recorded: completely disappear from day 3”. Moreover, the body weight result in the data set with MV-4-11 xenograft (5 and 10 mg/kg intravenous daily, administration period, between groups) was “no significant difference in body weight”. For the same compound, the “tumor volume and weight” value with MV-4-11 xenograft (5 and 10 mg/kg intravenous, vs control) is “significantly reduced”. Further, the “cyclin D1 level” value in [3] is “dose-dependent reduction of the cyclin D level”.
